From article PMC13195669, “GPR3 Ligands Discovered through Combined Virtual and Conformational Biosensor-Based Screening” (Journal of the American Chemical Society, 2026)

Each compound was assayed on β2AR (assay: β2AR-HaloTag/Nluc conformational biosensor (negative control) in HEK293A cells). Conditions: β2AR-HaloTag/Nluc as negative control; HEK293A stable.
Type: cell-based, human
Description: Initially, all 93 molecules were tested for activity at the GPR3 biosensor at a concentration of 1 μM (Figure a). […] Of the five compounds that emerged from the virtual screen, three–hereafter referred to as virtual hit 1–3, VH1/2/3–were selected for in-house chemical synthesis (compounds 52, 93, and 115; cf. Scheme , Figure S6), providing compounds of ≥99% purity for hit validation (NMR spectra: Figures S7–S142; HPLC purity: Figures S143–S218). For VH1, the racemic mix, rac-VH1/52, was synthesized and used for testing. Compounds 52, VH2/93, and VH3/115 (Figure S6) were then validated with the GPR3 biosensor including β2AR-HaloTag/Nluc as a negative control.
BRET-based GPCR conformational sensor experiments
Cells expressing the conformational GPCR biosensors were grown for 24 h (stable cells) or 48 h (transiently transfected cells) in white 96-well plates and washed with 100 µl of HBSS. After washing, cells were incubated for 2 minutes with a 1/1000 solution of the furimazine stock solution (Promega; cat. no. N1662). Three baseline BRET reads were recorded and averaged prior to the addition of serial dilutions of ligands or veh icle control and subsequent BRET reads. All experiments were con-ducted at 37 °C. BRE T donor emission was quantified with a 470/80 nm monochromator. BRET acceptor emission was quan-tified using a 660/100 nm monochromator. Experiments were carried out using a CLARIOstar plate reader. […]
FRET and BRET ratios were defined as acceptor emission/donor emission. […] To quantify ligand-induced changes ΔFRET and ΔBRET were calculated for each well as a percent over basal ([(Ratiostim − Ratiobasal)/Ratiobasal] × 100). […]
Data from FRET/BRET experiments were fitted using a three-parameter fit. Z-factors expressing the high-throughput suita-bility were calculated with the following equation: […]
Commercially available chemicals and solvents were purchased from standard commercial suppliers (Merck (Darmstadt, Ger-many), Sigma-Aldrich (Munich, Germany), Acros Organics (Geel, Belgium), Alfa Aesar (Karlsruhe, Germany), abcr (Karlsruhe, Germany), BLD Pharmatech (Reinbek, Germany) or TCI Europe (Zwijndrecht, Belgium) and were used as received. Deuter-ated solvents for nuclear magnetic resonance (1H NMR and 13C NMR) spectra were purchased from Deutero GmbH (Kastel-laun, Germany). All reactions carried out with dry solvents were accomplished in dry flasks under nitrogen or argon atmos-phere. For the preparation of buffers, HPLC eluents, and stock solutions millipore water was used. […] The reactions were monitored by thin layer chromatography (TLC) on Merck silica gel 60 F254 aluminium sheets and spots were visualized under UV light at 254 nm, by potassium permanganate or ninhydrin staining. […]

Compound | specificity of conformational response for GPR3 vs β2AR-HaloTag/Nluc
N=c1n(Cc2ccccc2)c2ccccc2n1CC1CC1 [compound 33] | selectivity for GPR3 over β2AR
N=c1n(Cc2ccccc2)c2ccccc2n1CC(O)COc1ccc(Cl)cc1 (stereo not drawn) [compound 52] | concentration-dependent and GPR3-specific conformational changes
Cc1ccc(NC(=O)CN2CCN(C(=O)CCc3ccc(Cl)cc3)CC2)cc1 [compound 115] | concentration-dependent and GPR3-specific conformational changes
